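Growth conditions: 96-well plates. Treatment: test compound, 48 hours, 5 concentrations. Analysis: linear interpolation between bracketing concentrations; unreached endpoints set to highest concentration. GI50 = concentration required for 50% inhibition of growth. TGI is the concentration that stops growth completely.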
How the values were obtained:
Test in all cases: growth of human tumour cells (NCI), 48 h
SK-MEL-5 melanoma = system: SK-MEL-5 melanoma
A549 NSCLC = system: A549 NSCLC
KM12 colon = system: KM12 colon
HOP-62 NSCLC = system: HOP-62 NSCLC
BT-549 breast = system: BT-549 breast
DU-145 prostate = system: DU-145 prostate
M14 melanoma = system: M14 melanoma
NCI-H460 lung = system: NCI-H460 lung
SNB-75 CNS = system: SNB-75 CNS
SF-539 CNS = system: SF-539 CNS

| Compound | GI50 (SK-MEL-5 melanoma) [µM] | TGI (SK-MEL-5 melanoma) [µM] | GI50 (A549 NSCLC) [µM] | TGI (A549 NSCLC) [µM] | GI50 (KM12 colon) [µM] | TGI (KM12 colon) [µM] | GI50 (HOP-62 NSCLC) [µM] | TGI (HOP-62 NSCLC) [µM] | GI50 (BT-549 breast) [µM] | TGI (BT-549 breast) [µM] | GI50 (DU-145 prostate) [µM] | TGI (DU-145 prostate) [µM] | GI50 (M14 melanoma) [µM] | TGI (M14 melanoma) [µM] | GI50 (NCI-H460 lung) [µM] | TGI (NCI-H460 lung) [µM] | GI50 (SNB-75 CNS) [µM] | TGI (SNB-75 CNS) [µM] | GI50 (SF-539 CNS) [µM] | TGI (SF-539 CNS) [µM] |
| --- | --- | --- | --- | --- | --- | --- | --- | --- | --- | --- | --- | --- | --- | --- | --- | --- | --- | --- | --- | --- |
| CC(=O)NC1CCCN(O)C(=O)/C=C(/C)CCOC(=O)C(NC(C)=O)CCCN(O)C(=O)/C=C(/C)CCOC(=O)C(NC(C)=O)CCCN(O)C(=O)/C=C(/C)CCOC1=O.[Fe] (stereo not given) | > 100 | > 100 | > 100 | > 100 | > 100 | > 100 | > 100 | > 100 | > 100 | > 100 | > 100 | > 100 | > 100 | > 100 | > 100 | > 100 | > 100 | > 100 | > 100 | > 100 |
| O=C(O)CN(CC(=O)O)c1ccccc1 |  | > 100 |  | > 100 |  | > 100 |  | > 100 |  | > 100 |  | > 100 |  | > 100 |  | > 100 |  | > 100 |  | > 100 |
| CCCCCCCCn1ccc2cc(NC(=O)Cn3cc(CN4CCC(C)CC4)nn3)ccc21 | 1.72 | 3.09 | 1.74 | 3.4 | 1.81 | 3.39 | 1.76 | 3.4 | 1.53 | 3.01 | 1.94 | 3.9 | 1.63 | 3.08 | 1.7 | 3.22 | 1.48 | 2.82 | 1.7 | 3.08 |
| O=S1CCN(Cc2ccc(-c3ccc4ncnc(Nc5ccc(OCc6ccccc6)c(F)c5)c4c3)o2)CC1 | 3.44 | 7 | 7.55 | > 25 | 10.1 | > 25 | 13.8 | > 25 | 7.88 | > 22.8 | 4.56 | > 25 | 6.26 | > 21.6 | 7.91 | > 25 | > 13.1 | > 25 | 5.84 | 15.1 |
